Broadly, the IC50 is the concentration that gives 50% inhibition.

Data on 1 sequence can be found in US7723473B2, “Peptide antagonists of TGF-beta family members and therapeutic uses thereof” (St. Louis University, priority 1997, dated 2010).

Assay [1] has as its system TGF-β receptors. As to the kind of experiment: Inhibition of specific binding of 125I-TGF-β2 to TGF-β receptors in mink lung epithelial cells. As to conditions: 0.1 nM 125I-TGF-β2, 2.5 hr at 0° C.; read-out: IC50 for inhibiting 125I-TGF-β2 binding to TGF-β receptors. Here is the method: (§1) Specific binding of ^125I-labeled TGF-β1, TGF-β2, and TGF-β3 (^125I-TGF-β1, ^125I-TGF-β2, and ^125I-TGF-β3) to TGF-β receptors in mink lung epithelial cells. ^125I-TGF-β1, ^125I-TGF-β2, and ^125I-TGF-β3 were prepared by iodination of TGF-β1, TGF-β2, and TGF-β3 with Na^125I as described previously (Ref. 7). The specific radioactivities of ^125I-TGF-β1, ^125I-TGF-β2, and ^125I-TGF-β3 were 1-3×10^5 cpm/ng. Mink lung epithelial cells were grown on 24-well clustered dishes to near confluence in Dulbecco's modified Eagle medium (DMEM) containing 10% fetal calf serum. The epithelial cells were incubated with 0.1 nM ^125I-TGF-β1, ^125I-TGF-β2, or ^125I-TGF-β3 both with and without 100-fold excess of unlabeled TGF-β1, TGF-β2, or TGF-β3 in binding buffer (Ref. 7). After 2.5 hr at 0° C., the cells were washed two times with binding buffer, and the cell-associated radioactivity was determined. The specific binding of ^125I-labeled TGF-β isoforms to TGF-β receptors in the cells was calculated by subtracting non-specific binding (in the presence of 100-fold excess of the unlabeled TGF-β isoforms) from total binding. All experiments were carried out in triplicate cell cultures.

The subject of assay [2] is TGF-β receptors. As to the kind of experiment: Inhibition of specific binding of 125I-TGF-β1 to TGF-β receptors in mink lung epithelial cells. As to conditions: 0.1 nM 125I-TGF-β1, 2.5 hr at 0° C.; read-out: IC50 for inhibiting 125I-TGF-β1 binding to TGF-β receptors. Here is the method:
as §1, with “The specific binding of ^125I-labeled TGF-β isoforms to TGF-β receptors in the cells was calculated by subtracting non-specific binding (in the presence of 100-fold excess of the unlabeled TGF-β isoforms) from total binding.” left out

Assay [3] has as its system type V TGF-β receptor (TβR-V). As to the kind of experiment: 125I-TGF-β1-affinity labeling of cell-surface type V TGF-β receptor in mink lung epithelial cells. As to conditions: various concentrations, FIG. 2 lanes 2-5. In kind it is binding. Here is the method:
^125I-TGF-β1-affinity labeling of cell-surface TGF-β receptors in mink lung epithelial cells. Mink lung epithelial cells grown on 60-mm Petri dishes were incubated with 0.1 nM […] the presence of various concentrations of peptide β1^25 (41-65) or peptide β3^25 (41-65) in binding buffer. After 2.5 hr at 0° C., ^125I-TGF-β1-affinity labeling was carried out in the presence of DSS as described. The ^125I-TGF-β1-affinity-labeled TGF-β receptors were analyzed by 5% SDS-polyacrylamide gel electrophoresis under reducing conditions and autoradiography.

With “ANFCSGPCPYLRSADTTHSTVLGLY [peptide β3^25 (41-65)]”, the IC50 with TGF-β receptors [1] and with TGF-β receptors [2] was roughly 20 µM throughout. In assay [3], the “blocking the 125I-TGF-β1-affinity labeling of the type V TGF-β receptor” value is listed as “weak activity”.
